Measurements taken from patent US11766443B2, “Cyclopentathiophene carboxamide derivatives as platelet activating factor receptor antagonists” (Boehringer Ingelheim International GmbH, priority 2021, dated 2023).
In brackets after ≈: the same amount, converted by molar mass.

Experiments:
human PAFR = biological target: T1, human PAFR (Homo sapiens, UniProt P25105); test: cellular HTRF IP1 endpoint assay: inhibition of PAFR activation by PAF C-16 ligand; type: cell-based; conditions: HEK293 cells overexpressing human PAFR; PAF ligand 11 nM
T1 construct: expressed in transfected cells; host or cells: HEK293
Protocol: The ability of compounds of formula (I.0) to inhibit the activation of the PAF receptor (PAFR) by the PAF C-16 ligand (PAF) is determined using the following cellular HTRF IP1 assay (IP1 Gq assay kit from Cisbio, Cat. no.: 62IP1APEJ) in assay buffer (1×HBSS, 20 mM Hepes, pH 7.4, 50 mM LiCl and containing 0.1% (w/v) BSA):
HEK293 cells overexpressing human PAFR (produced in-house) are seeded into a Poly-D-Lysine coated 384 well white cell culture microtiter assay plate with lid (15.000 cells per well). Subsequently, the plates are incubated over night at 37° C./5% CO2. On the next day, cells are being washed and subsequently, various concentrations of the test compounds (compounds in 100% DMSO; final concentration of DMSO in wells is 1%) are added to the assay plate via Echo 555 acoustic liquid handler. Plates are then incubated with lid for 90 minutes at 37° C./5% CO2. Thereafter, PAF ligand (Cayman Chemical Company, Item no.: 60900) is added at a final concentration of 11 nM. Plates are then incubated with lid for 60 minutes at 37° C./5% CO2. Then, 5 μl per well of Anti-IP1-Anti body-Cryptate solution and 5 μL per well of IP1-d2 solution are added to all wells of the plate and the plate is incubated for another 60 minutes light protected at room temperature. The emissions at 620 nm and 665 nm (Excitation wavelength: 320 nm) are measured using an Envision Reader (PerkinElmer).

[1] = aqueous solubility in buffer (from DMSO stock, 24 h shaking, LC-UV); conditions: pH 2.2, aqueous buffer, kinetic from dmso stock
Protocol: The aqueous solubility of the test compound is determined by comparing the amount dissolved in buffer to the amount in an ACN/water (1/1) solution. Starting from a 10 mM DMSO stock solution aliquots are diluted with ACN/water (1/1) or buffer, respectively. After 24 h of shaking, the solutions are filtrated and analyzed by LC-UV. The amount dissolved in buffer is compared to the amount in the ACN solution.
Solubility will usually be measured from 0.001 to 0.125 mg/mL at a DMSO concentration of 2.5%. If more than 90% of the compound is dissolved in buffer, the value is marked with “>”.

T1 sequence (P25105 whole entry): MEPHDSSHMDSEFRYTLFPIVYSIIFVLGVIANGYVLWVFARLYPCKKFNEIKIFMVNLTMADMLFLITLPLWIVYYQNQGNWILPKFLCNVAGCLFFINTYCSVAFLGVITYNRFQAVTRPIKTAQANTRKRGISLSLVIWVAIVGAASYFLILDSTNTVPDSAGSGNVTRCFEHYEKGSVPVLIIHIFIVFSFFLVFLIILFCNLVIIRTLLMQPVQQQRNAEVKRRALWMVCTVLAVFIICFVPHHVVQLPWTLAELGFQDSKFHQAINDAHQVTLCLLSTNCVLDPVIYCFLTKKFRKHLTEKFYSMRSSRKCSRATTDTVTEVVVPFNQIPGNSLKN

## Cc1nnc2n1-c1sc3c(c1C(c1ccccc1Cl)NC2)CC(C(=O)N1CCOCC1)C3 (racemic) [Example 1, 9-(2-Chlorophenyl)-3-methyl-13-(morpholine-4-carbonyl)-16-thia-2,4,5,8-tetraazatetracyclo[8.6.0.0^2,6.0^11,15]-hexadeca-1(10),3,5,11(15)-tetraene]
Human PAFR
  IC50: 102 nM
[1]
  solubility at 24 h: > 115 µg/mL

## CCc1ccccc1C1NCc2nnc(C)n2-c2sc3c(c21)CC(C(=O)N1CCOCC1)C3 (racemic) [Example 53, 9-(2-Ethylphenyl)-3-methyl-13-(morpholine-4-carbonyl)-16-thia-2,4,5,8-tetraazatetracyclo[8.6.0.0^2,6.0^11,15]hexadeca-1(10),3,5,11(15)-tetraene]
Human PAFR
  IC50: 297 nM
[1]
  solubility at 24 h: 116 µg/mL (≈ 250 µM)

## Cc1nnc2n1-c1sc3c(c1C(c1ccccc1F)NC2)CC(C(=O)N1CCOCC1)C3 (racemic) [Example 55, 9-(2-Fluorophenyl)-3-methyl-13-(morpholine-4-carbonyl)-16-thia-2,4,5,8-tetraazatetracyclo[8.6.0.0^2,6.0^11,15]hexadeca-1(10),3,5,11(15)-tetraene]
Human PAFR
  IC50: 240 nM
[1]
  solubility at 24 h: > 112 µg/mL

## Cc1nnc2n1-c1sc3c(c1C(c1ccccc1Br)NC2)CC(C(=O)N1CCOCC1)C3 (racemic) [Example 57, 9-(2-Bromophenyl)-3-methyl-13-(morpholine-4-carbonyl)-16-thia-2,4,5,8-tetraazatetracyclo[8.6.0.0^2,6.0^11,15]hexadeca-1(10),3,5,11(15)-tetraene]
Human PAFR
  IC50: 161 nM
[1]
  solubility at 24 h: > 128 µg/mL

## Cc1nnc2n1-c1sc3c(c1C(c1ccccc1C1CC1)NC2)CC(C(=O)N1CCOCC1)C3 (racemic) [Example 59, 9-(2-Cyclopropylphenyl)-3-methyl-13-(morpholine-4-carbonyl)-16-thia-2,4,5,8-tetraazatetracyclo[8.6.0.0^2,6.0^11,15]-hexadeca-1(10),3,5,11(15)-tetraene]
Human PAFR
  IC50: > 322 nM
[1]
  solubility at 24 h: > 119 µg/mL

## Cc1nnc2n1-c1sc3c(c1C(c1ccccc1CO)NC2)CC(C(=O)N1CCOCC1)C3 (racemic) [Example 60, {2-[3-Methyl-13-(morpholine-4-carbonyl)-16-thia-2,4,5,8-tetraazatetracyclo[8.6.0.0^2,6.0^11,15]hexadeca-1(10),3,5,11(15)-tetraen-9-yl]phenyl}methanol]
Human PAFR
  IC50: > 322 nM

## Cc1nnc2n1-c1sc3c(c1C(c1ccccc1O)NC2)CC(C(=O)N1CCOCC1)C3 (racemic) [Example 61, 2-[3-Methyl-13-(morpholine-4-carbonyl)-16-thia-2,4,5,8-tetraazatetracyclo[8.6.0.0^2,6.0^11,15]hexadeca-1(10),3,5,11(15)-tetraen-9-yl]phenol]
Human PAFR
  IC50: > 322 nM
[1]
  solubility at 24 h: > 113 µg/mL

## CSc1ccccc1C1NCc2nnc(C)n2-c2sc3c(c21)C[C@H](C(=O)N1CCOCC1)C3 (mixture of isomers) [Example 79, 3-Methyl-9-[2-(methylsulfanyl)phenyl]-13-(morpholine-4-carbonyl)-16-thia-2,4,5,8-tetraazatetracyclo[8.6.0.0^2,6.0^11,15]hexadeca-1(10),3,5,11(15)-tetraene]
Human PAFR
  IC50: 235 nM
[1]
  solubility at 24 h: > 119 µg/mL

## CCCc1nnc2n1-c1sc3c(c1[C@@H](c1ccccc1Cl)NC2)CC(C(=O)N1CCOCC1)C3 (stereo in doubt) [Example 80, 9-(2-Chlorophenyl)-13-(morpholine-4-carbonyl)-3-propyl-16-thia-2,4,5,8-tetraazatetracyclo[8.6.0.0^2,6.0^11,15]hexadeca-1(10),3,5,11(15)-tetraene]
Human PAFR
  IC50: 110 nM
[1]
  solubility at 24 h: > 104 µg/mL

## Cc1nnc2n1-c1sc3c(c1[C@@H](c1ccccc1Cl)NC2)C[C@H](C(=O)N1CCOCC1)C3 [Example 3, (9S,13S)-9-(2-chlorophenyl)-3-methyl-13-(morpholine-4-carbonyl)-16-thia-2,4,5,8-tetraazatetracyclo[8.6.0.0^2,6.0^11,15]-hexadeca-1(10),3,5,11(15)-tetraene]
Human PAFR
  IC50: 423 nM
[1]
  solubility at 24 h: > 118 µg/mL

## Cc1nnc2n1-c1sc3c(c1[C@H](c1ccccc1Cl)NC2)C[C@H](C(=O)N1CCO[C@@H](C)C1)C3 [Example 4, (9R,13S)-9-(2-Chlorophenyl)-3-methyl-13-[(2S)-2-methylmorpholine-4-carbonyl]-16-thia-2,4,5,8-tetraazatetracyclo-[8.6.0.0^2,6.0^11,15]hexadeca-1(10)3,5,11(15)-tetraene]
Human PAFR
  IC50: 6.8 nM
[1]
  solubility at 24 h: > 113 µg/mL

## Cc1nnc2n1-c1sc3c(c1[C@H](c1ccccc1Cl)NC2)C[C@H](C(=O)N1C[C@@H](C)O[C@H](C)C1)C3 [Example 5]
Human PAFR
  IC50: 8.2 nM
[1]
  solubility at 24 h: 95 µg/mL (≈ 191 µM)

## Cc1nnc2n1-c1sc3c(c1[C@H](c1ccccc1Cl)NC2)C[C@H](C(=O)N1C[C@H](C)O[C@@H](C)C1)C3 [Example 6]
Human PAFR
  IC50: 11 nM
[1]
  solubility at 24 h: > 112 µg/mL

## Cc1nnc2n1-c1sc3c(c1[C@H](c1ccccc1Cl)NC2)C[C@H](C(=O)NCc1ccc(C(F)(F)F)nc1)C3 [Example 7]
Human PAFR
  IC50: 3.6 nM
[1]
  solubility at 24 h: 130 µg/mL (≈ 233 µM)

## Cc1nnc2n1-c1sc3c(c1[C@@H](c1ccccc1Cl)NC2)C[C@H](C(=O)NCCOC(F)(F)F)C3 [Example 8]
Human PAFR
  IC50: 55 nM
[1]
  solubility at 24 h: > 121 µg/mL

## Cc1nnc2n1-c1sc3c(c1[C@@H](c1ccccc1Cl)NC2)C[C@H](C(=O)NC1CCC1)C3 [Example 9]
Human PAFR
  IC50: 34 nM
[1]
  solubility at 24 h: > 105 µg/mL

## Cc1nnc2n1-c1sc3c(c1[C@H](c1ccccc1Cl)NC2)C[C@H](C(=O)NC1(c2ccc(Cl)cn2)CC1)C3 [Example 10]
Human PAFR
  IC50: 1.3 nM
[1]
  solubility at 24 h: > 140 µg/mL

## Cc1nnc2n1-c1sc3c(c1[C@@H](c1ccccc1Cl)NC2)C[C@H](C(=O)NCc1ccc(OC(F)F)nc1)C3 [Example 11]
Human PAFR
  IC50: 53 nM
[1]
  solubility at 24 h: 105 µg/mL (≈ 189 µM)

## Cc1nnc2n1-c1sc3c(c1[C@H](c1ccccc1Cl)NC2)C[C@H](C(=O)NCc1ccc(OC(F)F)nc1)C3 [Example 12]
Human PAFR
  IC50: 1.9 nM
[1]
  solubility at 24 h: > 129 µg/mL

## Cc1nnc2n1-c1sc3c(c1[C@@H](c1ccccc1Cl)NC2)C[C@H](C(=O)NCc1ccc(C(F)(F)F)cc1)C3 [Example 13]
Human PAFR
  IC50: 281 nM
[1]
  solubility at 24 h: 88 µg/mL (≈ 158 µM)

## Cc1nnc2n1-c1sc3c(c1[C@H](c1ccccc1Cl)NC2)C[C@H](C(=O)NCc1ccc(C(F)(F)F)cc1)C3 [Example 14]
Human PAFR
  IC50: 0.4 nM
[1]
  solubility at 24 h: 109 µg/mL (≈ 195 µM)

## Cc1nnc2n1-c1sc3c(c1[C@H](c1ccccc1Cl)NC2)C[C@H](C(=O)NCC1CC1)C3 [Example 15]
Human PAFR
  IC50: 1.7 nM
[1]
  solubility at 24 h: > 113 µg/mL

## Cc1nnc2n1-c1sc3c(c1C(c1ccc(Cl)cc1)NC2)CC(C(=O)N1CCOCC1)C3 (stereo not drawn) [Example 52, 9-(4-Chlorophenyl)-3-methyl-13-(morpholine-4-carbonyl)-16-thia-2,4,5,8-tetraazatetracyclo[8.6.0.0^2,6.0^11,15]hexadeca-1(10),3,5,11(15)-tetraene]
Human PAFR
  IC50: 283 nM

## COc1ccccc1C1NCc2nnc(C)n2-c2sc3c(c21)CC(C(=O)N1CCOCC1)C3 (stereo not drawn) [Example 54, 9-(2-Methoxyphenyl)-3-methyl-13-(morpholine-4-carbonyl)-16-thia-2,4,5,8-tetraazatetracyclo[8.6.0.0^2,6.0^11,15]-hexadeca-1(10),3,5,11(15)-tetraene]
[1]
  solubility at 24 h: 49 µg/mL (≈ 105 µM)

## Cc1nnc2n1-c1sc3c(c1C(c1ccccc1C(F)(F)F)NC2)CC(C(=O)N1CCOCC1)C3 (stereo not drawn) [Example 56, 3-Methyl-13-(morpholine-4-carbonyl)-9-[2-(trifluoromethyl)phenyl]-16-thia-2,4,5,8-tetraazatetracyclo[8.6.0.0^2,6.0^11,15]-hexadeca-1(10),3,5,11(15)-tetraene]
[1]
  solubility at 24 h: > 126 µg/mL

## Cc1nnc2n1-c1sc3c(c1C(c1cc(F)cc(F)c1)NC2)CC(C(=O)N1CCOCC1)C3 (stereo not drawn) [Example 58, 9-(3,5-Difluorophenyl)-3-methyl-13-(morpholine-4-carbonyl)-16-thia-2,4,5,8-tetraazatetracyclo[8.6.0.0^2,6.0^11,15]-hexadeca-1(10),3,5,11(15)-tetraene]
[1]
  solubility at 24 h: > 118 µg/mL

## Cc1ccccc1[C@H]1NCc2nnc(C)n2-c2sc3c(c21)C[C@H](C(=O)N1CCOCC1)C3 [Example 63, (9R,13S)-3-Methyl-9-(2-methylphenyl)-13-(morpholine-4-carbonyl)-16-thia-2,4,5,8-tetraazatetracyclo[8.6.0.0^2,6.0^11,15]-hexadeca-1(10),3,5,11(15)-tetraene]
[1]
  solubility at 24 h: > 110 µg/mL

## CCc1nnc2n1-c1sc3c(c1[C@H](c1ccccc1Cl)NC2)C[C@@H](C(=O)N1CCOCC1)C3 [Example 70]
Human PAFR
  IC50: > 1000 nM

## CCc1nnc2n1-c1sc3c(c1[C@@H](c1ccccc1Cl)NC2)C[C@@H](C(=O)N1CCOCC1)C3 [Example 71]
Human PAFR
  IC50: > 999 nM

## Cc1nnc2n1-c1sc3c(c1[C@@H](c1ccccc1)NC2)C[C@@H](C(=O)N1CCOCC1)C3 [Example 75]
Human PAFR
  IC50: > 568 nM

## Cc1nnc2n1-c1sc3c(c1[C@H](c1ccccc1)NC2)C[C@H](C(=O)N1CCOCC1)C3 [Example 76]
Human PAFR
  IC50: 140 nM

## Cc1nnc2n1-c1sc3c(c1[C@H](c1ccccc1)NC2)C[C@@H](C(=O)N1CCOCC1)C3 [Example 77]
Human PAFR
  IC50: > 1000 nM

## Cc1nnc2n1-c1sc3c(c1[C@@H](c1ccccc1)NC2)C[C@H](C(=O)N1CCOCC1)C3 [Example 78]
Human PAFR
  IC50: > 1000 nM
